According to US7423159B2, “Agent for preventing or treating neuropathy” (Takeda Pharmaceutical Company Limited, priority 2002, dated 2008):

| melting point | Structure (SMILES) |
| --- | --- |
| 154 to 155 °C | CCCc1nnc(Cc2ccc(NC(=O)/C=C/c3cnn(C)c3-c3ccc(F)cc3)cc2)o1 [Example 85, (2E)-3-[5-(4-fluorophenyl)-1-methyl-1H-pyrazol-4-yl]-N-{4-[(5-propyl-1,3,4-oxadiazol-2-yl)methyl]phenyl}acrylamide] |
| > 300 °C | Cn1ncc(/C=C/C(=O)Nc2ccc(Cc3nc4ccccc4[nH]3)cc2)c1-c1ccc(F)cc1 [Example 108, (2E)-N-[4-(1H-Benzimidazol-2-ylmethyl)phenyl]-3-[5-(4-fluorophenyl)-1-methyl-1H-pyrazol-4-yl]acrylamide] |
| 197 to 198 °C | CCOP(=O)(Cc1ccc(NC(=O)/C=C/c2cn(C)nc2-c2ccc(F)cc2)cc1)OCC |
| 204 to 206 °C | Cn1ncc(/C=C/C(=O)Nc2ccc(CS(=O)(=O)c3c[nH]nn3)cc2)c1-c1ccc(F)cc1 [Example 227, (2E)-3-[5-(4-Fluorophenyl)-1-methyl-1H-pyrazol-4-yl]-N-{4-[(1H-1,2,3-triazol-4-ylsulfonyl)methyl]phenyl}acrylamide] |
| 233 to 234 °C | Cn1ncc(/C=C/C(=O)Nc2ccc(Cn3cnnn3)cc2)c1-c1ccc(F)cc1 [Example 199, (2E)-3 [5-(4-Fluorophenyl)-1-methyl-1H-pyrazol-4-yl]-N-[4-(1H-tetrazol-1-ylmethyl)phenyl]acrylamide] |
| 222 to 223 °C | Cn1ncc(/C=C/C(=O)Nc2ccc(Cn3nc4ccccc4n3)cc2)c1-c1ccc(F)cc1 [Example 179, (2E)-N-[4-(2H-1,2,3-Benzotriazol-2-ylmethyl)phenyl]-3-[5-(4-fluorophenyl)-1-methyl-1H-pyrazol-4-yl]acrylamide] |
| 226 to 227 °C | Cn1ncc(/C=C/C(=O)Nc2ccc(Cn3nnc4ccccc43)cc2)c1-c1ccc(F)cc1 [Example 177, (2E)-N-[4-(1H-1,2,3-Benzotriazol-1-ylmethyl)phenyl]-3-[5-(4-fluorophenyl)-1-methyl-1H-pyrazol-4-yl]acrylamide] |
| 182 to 183 °C | Cn1ncc(/C=C/C(=O)Nc2ccc(CSc3c[nH]nn3)cc2)c1-c1ccc(F)cc1 [Example 213, (2E)-3-[5-(4-Fluorophenyl)-1-methyl-1H-pyrazol-4-yl]-N-(4-[(1H-1,2,3-triazol-4-ylthio)methyl)phenyl]acrylamide] |
| 174 to 175 °C | CCc1coc(Cc2ccc(NC(=O)/C=C/c3cnn(C)c3-c3ccc(F)cc3)cc2)n1 [Example 98, (2E)-N-{4-[(4-Ethyl-1,3-oxazol-2-yl)methyl]phenyl}-3-[5-(4-fluorophenyl)-1-methyl-1H-pyrazol-4-yl]acrylamide] |
| 192 to 195 °C | Cn1ncc(/C=C/C(=O)Nc2ccc(C(O)c3ccccc3)cc2)c1-c1ccc(F)cc1 (centres unmarked) [Example 174, (2E)-3-[5-(4-Fluorophenyl)-1-methyl-1H-pyrazol-4-yl]-N-{4-[hydroxy(phenyl)methyl]phenyl}acrylamide] |
| 170 to 171 °C | COCc1ccc(NC(=O)/C=C/c2cnn(C)c2-c2ccc(F)cc2)cc1 [Example 209, (2E)-3-[5-(4-Fluorophenyl)-1-methyl-1H-pyrazol-4-yl]-N-[4-(methoxymethyl)phenyl]acrylamide] |
| 243 to 245 °C | CCOP(=O)(Cc1ccc(NC(=O)/C=C/c2cnn(C)c2-c2ccc(C)cc2)cc1)OCC |
| 98 to 99 °C | CCc1nc(COc2ccc(NC(=O)/C=C/c3cnn(C)c3-c3ccc(F)cc3)cc2)cs1 [Example 93, (2E)-N-{4-[(2-Ethyl-1,3-thiazol-4-yl)methoxy]phenyl}-3-[5-(4-fluorophenyl)-1-methyl-1H-pyrazol-4-yl]acrylamide] |
| 291 to 292 °C | Cn1ncc(/C=C/C(=O)Nc2ccc(C(=O)O)cc2)c1-c1ccc(F)cc1 [Example 234, 4-({(2E)-3-[5-(4-fluorophenyl)-1-methyl-1H-pyrazol-4-yl]prop-2-enoyl}amino)benzoic acid] |
